In the supplement of paper PMC11208160:

Test: recombinant barcode read abundance after kanamycin selection (control-corrected) (log10(CPM+1)); higher = more efficient recombination; sequences stand for … in AGTGCAGAGAAAATCGGCCAGTTTTCTCTGCCTGCAGTCCGCATGCCGT…AGATTTATGCAGCGGACTGCCTTTCTCCCAAAGTGATAAACCGGACAGTATCATGGACCGGTTTTCCCGGTAATCCGTATTTGCAAGGTTGGTTTCACT; site = the 11-nt target
Experimental: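 Pooled E. coli target-specificity screen for the IS621 bridge recombinase. Each library plasmid pairs an 11-nt target (CT core) with a bridge RNA whose target-binding loop (9-nt LTG + 4-nt RTG) is reprogrammed; the rest of the 177-nt WT IS621 bridge RNA scaffold is fixed. The plasmid is co-electroporated with a WT donor plasmid; recombinase is induced with 0.1 mM IPTG and recombinants are selected on kanamycin. Recombinant barcodes are sequenced, converted to CPM, averaged over two biological replicates and corrected by the unselected control CPM. Molecule = full bridge RNA written as DNA: LTG = specificity nt 1-9, RTG = reverse complement of specificity nt 8-11, in the WT scaffold.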
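Also: IS621 recombinase and bridge RNA in Escherichia coli cells.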

Sequence	recombinant barcode read abundance (log10)
ACCTGCCCTTGGGTTCTAACCTGTTGCCT (site ACCTGTCCTAG)	0.232
ACCTGTACTTGGGTTCTAACCTGTTGCCT (site ACCAGTACTAG)	0.0531
ACCTGTACTTGGGTTCTAACCTGTTGCCT (site ACCCGTACTAG)	0.147
ACCTGTACTTGGGTTCTAACCTGTTGCCT (site ACCGGTACTAG)	0.0956
ACCTGTACTTGGGTTCTAACCTGTTGCCT (site ACCTGTACTAG)	0.183
ACCTTAGCTTGGGTTCTAACCTGTTGCGG (site ACCCTAACTCC)	0.263
ACCTTAGCTTGGGTTCTAACCTGTTGCGG (site ACCTTAGCTCC)	1.79
ACCTTGCCTTGGGTTCTAACCTGTTGCCT (site ACATTGCCTAG)	0.178
ACCTTGCCTTGGGTTCTAACCTGTTGCCT (site ACCTTGCCTAG)	0.012
ACCTTGCCTTGGGTTCTAACCTGTTGCCT (site ACGTTGCCTAG)	0.875
ACCTTGCCTTGGGTTCTAACCTGTTGCCT (site ACTTTGCCTAG)	0.0414
ACGAATCCTTGGGTTCTAACCTGTTGCTT (site ACGAATCCTAA)	0.423
ACGAATCCTTGGGTTCTAACCTGTTGCTT (site ACGACTCCTAA)	0.0122
ACGAATCCTTGGGTTCTAACCTGTTGCTT (site ACGAGTCCTAA)	0.461
ACGAATCCTTGGGTTCTAACCTGTTGCTT (site ACGATTCCTAA)	0.0624
ACGACTCCTTGGGTTCTAACCTGTTGCTG (site ACGACTCCTCA)	0.485
ACGACTCCTTGGGTTCTAACCTGTTGCTG (site ACGCCTCCTCA)	0.0825
ACGACTCCTTGGGTTCTAACCTGTTGCTG (site ACGGCTCCTCA)	0.0665

Sequence	recombinant barcode read abundance (log10)
ACGACTCCTTGGGTTCTAACCTGTTGCTG (site ACGTCTCCTCA)	0.0836
ACGACTCCTTGGGTTCTAACCTGTTGCTT (site ACGAATCCTAA)	0.224
ACGACTCCTTGGGTTCTAACCTGTTGCTT (site ACGACTCCTAA)	0.0167
ACGACTCCTTGGGTTCTAACCTGTTGCTT (site ACGAGTCCTAA)	0.0152
ACGACTCCTTGGGTTCTAACCTGTTGCTT (site ACGATTCCTAA)	0.0399
ACGACTTCTTGGGTTCTAACCTGTTGCCT (site ACGACTACTAG)	0.0265
ACGACTTCTTGGGTTCTAACCTGTTGCCT (site ACGACTCCTAG)	0.167
ACGACTTCTTGGGTTCTAACCTGTTGCCT (site ACGACTGCTAG)	0
ACGACTTCTTGGGTTCTAACCTGTTGCCT (site ACGACTTCTAG)	0.731
ACGAGTCCTTGGGTTCTAACCTGTTGCTT (site ACGAATCCTAA)	0.365
ACGAGTCCTTGGGTTCTAACCTGTTGCTT (site ACGACTCCTAA)	0.161
ACGAGTCCTTGGGTTCTAACCTGTTGCTT (site ACGAGTCCTAA)	0.606
ACGAGTCCTTGGGTTCTAACCTGTTGCTT (site ACGATTCCTAA)	0.0892
ACGCCTCCTTGGGTTCTAACCTGTTGCTG (site ACGACTCCTCA)	0.0447
ACGCCTCCTTGGGTTCTAACCTGTTGCTG (site ACGCCTCCTCA)	0.384
ACGCCTCCTTGGGTTCTAACCTGTTGCTG (site ACGGCTCCTCA)	0.269
ACGCCTCCTTGGGTTCTAACCTGTTGCTG (site ACGTCTCCTCA)	0.175
ACGCGGCCTTGGGTTCTAACCTGTTGCCT (site ACGCGGCCTAG)	0.103
